Tests used:
Format in all cases: cell-based
[1] = tested on: Melan-a cells; test: Melanin inhibition assay in Melan-a cells; conditions: 4 days, concentrations of FIG. 5
Description: Melan-a cells seeded at a density of 5×10^4 cells per well were grown in a 24 well plate. Sesamin complex (S1) (at the concentrations indicated in the legend of FIG. 5) was dissolved in (DMSO) such that the final concentration of DMSO in the culture medium was maintained at 0.05%. Sesamin complex and Phenylthiourea (PTU) was added to the cells in triplicate and incubated for 2 days following which the cells were again treated with compounds supplemented with fresh medium. PTU at a concentration of 60 ug/ml was used as a positive inhibitor control in the melanin inhibition assay. Two days later, melanin was extracted and quantitated by normalizing with the protein content. After 4 days, melanin was extracted and cleared of the cell debris from each of the wells were dissolved by treating with 2N NaOH in 20% DMSO and incubating the samples for 60 min at 55° C. The melanin content in each sample was determined by measuring absorbance at 490 nm. Data were presented as % melanin content normalized to protein content in untreated wells compared to % melanin content extracted from samples.

[2] = tested on: antioxidant response elements; test: Anti-oxidant response element (ARE) luciferase reporter assay in stable HepG2 cells; conditions: 48 hours, FIG. 4
Text: Yet other embodiments relate to a method of decreasing a skin anti-inflammatory response comprising applying to the skin a composition in a cosmetically effective amount sufficient to decrease the skin anti-inflammatory response, wherein the composition comprises an amount of sesamin, individually or in combination with at least one other plant ingredient or plant extract from Pistacia (e.g., Pistacia lentiscus), Leontopodium (e.g., Leontopodium alpinium), Spirulina (e.g., Spirulina platensis), Oroxylum (e.g., Oroxylum indicum), Schizandra (e.g., Schizandra chinesis), Moringa (e.g., Moringa pterygosperma), Houttuynia (e.g., Houttuynia cordata), Isodon (e.g., Isodon japonicus), and Saxifraga (e.g., Saxifraga stolonifera), or mixtures thereof, and at least one pharmaceutically or cosmetically acceptable vehicle. […] Use of compositions that are capable of decreasing a skin anti-inflammatory response in the skin may result in improvement of the appearance of skin or at least one sign of aging in skin. Sesamin complex was dissolved in 70% DMSO and finally diluted […] in MEM containing Myrosinase (0.625 U/mL) and Ascorbic Acid (350 uM) and the final concentration of DMSO was 0.14%. […] The cells were grown in minimum essential media (MEM) with 10% fetal bovine serum and 150 ug/mL of hygromycin in a humidified atmosphere containing 5% CO2 at 37 C. For the assay, the cells were seeded at a density of 31,250 cells per well in a 96-well, white-walled, collagen coated plate. The following day, the media was removed and fresh growth media was added. After 24 hours, the cells were treated with test compounds for 48 hours (100 ug/mL, 50 ug/mL, 25 ug/mL, 12.5 ug/mL, and […]), lysed and the amount of luciferase produced was measured using a luciferase activity assay. Data were captured as relative luminescence units (RLUs) using an M5 Spectrophotometer (Molecular Devices, Inc).

[3] = molecular target: T1, Gal4-PPARγ-LBD fusion protein (Homo sapiens, UniProt P37231); test: PPARγ activation luciferase reporter assay (Gal4-PPARγ-LBD, CHO-K1 cells); conditions: 18-24 hours, FIG. 6, n=2
T1 construct: The PPARγ-LBD (residues 203-477) was PCR amplified from human MGC: 5041; expressed in transfected cells
T1 sequence (P37231 203-477 isoform P37231-2): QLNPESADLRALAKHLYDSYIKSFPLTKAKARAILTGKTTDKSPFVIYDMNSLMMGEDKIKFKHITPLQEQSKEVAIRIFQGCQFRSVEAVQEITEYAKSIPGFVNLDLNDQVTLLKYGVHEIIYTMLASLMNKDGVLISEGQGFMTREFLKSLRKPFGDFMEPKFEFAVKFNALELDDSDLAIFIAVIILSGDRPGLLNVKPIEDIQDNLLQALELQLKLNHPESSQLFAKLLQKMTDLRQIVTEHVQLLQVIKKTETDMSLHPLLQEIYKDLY
Description: Troglitazone (positive control) was purchased from Sigma Corp. Sesamin sample was purchased from Virun Chemicals and a stock solution at a concentration of 100 mg/mL was prepared in 70% Dimethyl Sulfoxide (DMSO) and diluted to the indicated concentrations as shown in the figure. The final concentration of DMSO was maintained at 0.05% or lower. Stock solutions of troglitzone and sesamin samples were solubilized and diluted in DMSO prior to dilution in Dubelco's minimum essential media (DMEM) containing 0.5% Bovine serum Albumin (BSA) for testing. To study the activation of PPARγ in a luciferase reporter assay, a Gal4-PPARγ-ligand-binding domain (LBD) vector was created in a modified pF[…] (BIND) vector (Promega Inc). The PPARγ-LBD (residues 203-477) was PCR amplified from human MGC: 5041 (pSPORT6; Open Biosystems Inc.) and ligated into the pBIND3 vector forming a Gal4-PPARγ-LBD fusion protein. […] Luciferase was quantified using an activity assay from Biotium Inc. Briefly, at time of analysis, cells in white-walled 96-well plates were rinsed once using 50 μL of DPBS, then lysed with 20 μL of 1× passive lysis buffer. […] Reconstituted, room temperature D-luciferin was added (100 μL per well) and light emission was immediately read using an M-5 spectrophotometer (Molecular Devices, Inc.).

c1cc2c(cc1[C@H]1OC[C@H]3[C@@H]1CO[C@@H]3c1ccc3c(c1)OCO3)OCO2 [sesamin]
melanin inhibition (% melanin content normalized to protein content) [1]: dose dependent melanin inhibition
anti-oxidant response (% Response) ([2]; 50 ug/mL, second highest response): activation of anti-oxidant pathways
anti-oxidant response (% Response) ([2]; 100 ug/mL): highest anti-oxidant response
anti-oxidant response (% Response, luciferase RLU normalized to untreated 0% and sulforophane 100%) ([2]; HepG2 ARE-luciferase cells, 6.75-100 ug/mL): dose-dependent anti-oxidant response
activation of PPARγ (percent of control response) ([3]; sesamin at 70% (μg/mL)): dose-dependent activation of PPARγ
activation of PPARγ (percent of control response) ([3]; sesamin at 90% (μg/mL)): dose-dependent activation of PPARγ

Source: patent publication US10383806B2, “Compositions including sesamin, methods of making and using the same in skin anti-aging and skin lightening applications” (Access Business Group International LLC, priority 2015, dated 2019)
